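Protocol summary: plate cells (96-well), add compound at 5 concentrations, incubate 48 h, interpolate endpoints linearly. Definition used: TGI = concentration required for complete inhibition of growth.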
Legend:
Experiment in all cases: NCI anticancer screen, dose series, 48 h
[1] = tested on: HOP-92 NSCLC
[2] = tested on: DLD-1 colon
[3] = tested on: TK-10 renal
[4] = tested on: SK-MEL-2 melanoma
[5] = tested on: MOLT-4 leukemia
[6] = tested on: DMS 114 small cell lung
[7] = tested on: UO-31 renal
[8] = tested on: OVCAR-3 ovarian
[9] = tested on: EKVX NSCLC
[10] = tested on: HL-60(TB) leukemia
[11] = tested on: UACC-257 melanoma
[12] = tested on: SN12C renal
[13] = tested on: NCI-H522 lung
[14] = tested on: SF-539 CNS
[15] = tested on: OVCAR-5 ovarian
[16] = tested on: SF-295 CNS
[17] = tested on: NCI-H226 lung
[18] = tested on: M19-MEL melanoma
[19] = tested on: SK-MEL-28 melanoma
[20] = tested on: MALME-3M melanoma
[21] = tested on: ACHN renal
[22] = tested on: NCI-H460 lung
[23] = tested on: HOP-18 NSCLC
[24] = tested on: U251 CNS
[25] = tested on: RPMI-8226 leukemia
[26] = tested on: SNB-75 CNS
[27] = tested on: SNB-19 CNS
[28] = tested on: NCI-H23 lung
[29] = tested on: SW-620 colon
[30] = tested on: A549 NSCLC
[31] = tested on: IGROV1 ovarian
[32] = tested on: M14 melanoma
[33] = tested on: COLO 205 colon
[34] = tested on: CCRF-CEM leukemia
[35] = tested on: OVCAR-4 ovarian
[36] = tested on: K-562 leukemia
[37] = tested on: HCT-116 colon
[38] = tested on: LOX IMVI melanoma
[39] = tested on: KM12 colon
[40] = tested on: UACC-62 melanoma
[41] = tested on: SK-OV-3 ovarian
[42] = tested on: CAKI-1 renal
[43] = tested on: SNB-78 CNS
[44] = tested on: 786-0 renal
[45] = tested on: HCT-15 colon
[46] = tested on: OVCAR-8 ovarian
[47] = tested on: SR leukemia
[48] = tested on: HT29 colon
[49] = tested on: SK-MEL-5 melanoma
[50] = tested on: HCC-2998 colon
[51] = tested on: DMS 273 small cell lung
[52] = tested on: LXFL 529 NSCLC
[53] = tested on: HOP-62 NSCLC
[54] = tested on: A498 renal
[55] = tested on: HS 578T breast
[56] = tested on: SF-268 CNS
[57] = tested on: XF 498 CNS
[58] = tested on: BT-549 breast
[59] = tested on: NCI/ADR-RES ovarian
[60] = tested on: MDA-MB-231 breast
[61] = tested on: T-47D breast
[62] = tested on: DU-145 prostate
[63] = tested on: MDA-N
[64] = tested on: KM20L2 colon
[65] = tested on: RXF 393 renal
[66] = tested on: MDA-MB-435
[67] = tested on: PC-3 prostate
[68] = tested on: MCF7 breast

Compound `OCC1OC(n2ccc3cnccc32)CC1O` (stereo not given) has a TGI [1] of over 100 µM, a TGI [2] of over 100 µM and a TGI [3] of over 100 µM. For the same compound, the TGI [4] was over 100 µM, the TGI [5] was over 100 µM and the TGI [6] was over 100 µM. It also gave a TGI [7] of over 100 µM, a TGI [8] of over 100 µM and a TGI [9] of over 100 µM. The TGI [10] was over 100 µM, the TGI [11] was over 100 µM and the TGI [12] was over 100 µM. The TGI [13] was over 100 µM, the TGI [14] was over 100 µM and the TGI [15] was over 100 µM. The TGI [16] was over 100 µM, the TGI [17] was over 100 µM and the TGI [18] was over 100 µM. For the same compound, the TGI [19] was over 100 µM, the TGI [20] was over 100 µM and the TGI [21] was over 100 µM. For the same compound, the TGI [22] was over 100 µM, the TGI [23] was over 100 µM and the TGI [24] was over 100 µM. The TGI [25] was over 100 µM, the TGI [26] was over 100 µM and the TGI [27] was over 100 µM. The TGI [28] was over 100 µM, the TGI [29] was over 100 µM and the TGI [30] was over 100 µM. For the same compound, the TGI [31] was over 100 µM, the TGI [32] was over 100 µM and the TGI [33] was over 100 µM. For the same compound, the TGI [34] was over 100 µM, the TGI [35] was over 100 µM and the TGI [36] was over 100 µM. It also gave a TGI [37] of over 100 µM, a TGI [38] of over 100 µM and a TGI [39] of over 100 µM. It also gave a TGI [40] of over 100 µM, a TGI [41] of over 100 µM and a TGI [42] of over 100 µM. For the same compound, the TGI [43] was over 100 µM, the TGI [44] was over 100 µM and the TGI [45] was over 100 µM. For the same compound, the TGI [46] was over 100 µM, the TGI [47] was over 100 µM and the TGI [48] was over 100 µM. For the same compound, the TGI [49] was over 100 µM, the TGI [50] was over 100 µM and the TGI [51] was over 100 µM. For the same compound, the TGI [52] was over 100 µM, the TGI [53] was over 100 µM and the TGI [54] was over 100 µM.
Work on `CCN(CC)CC(O)CNc1ccc(NCC(O)CCl)c2c1C(=O)c1ccccc1C2=O` (stereo not given) yielded a TGI [1] of 18.2 µM, a TGI [2] of 38.9 µM and a TGI [3] of 25.5 µM. For the same compound, the TGI [4] was 26.2 µM, the TGI [5] was 8.82 µM and the TGI [7] was 17.9 µM. It also gave a TGI [55] of 31 µM, a TGI [8] of 19.3 µM and a TGI [56] of 19.9 µM. The TGI [9] was 29.5 µM, the TGI [10] was 11.3 µM and the TGI [11] was 16 µM. The TGI [12] was 19.7 µM, the TGI [13] was 13.5 µM and the TGI [14] was 19.1 µM. The TGI [15] was 29.2 µM, the TGI [57] was 26.9 µM and the TGI [58] was 23.5 µM. For the same compound, the TGI [16] was 22.1 µM, the TGI [17] was 25 µM and the TGI [18] was 22.1 µM. The TGI [19] was 25.4 µM, the TGI [20] was 28.3 µM and the TGI [21] was 16.3 µM. It also gave a TGI [22] of 12.5 µM, a TGI [24] of 28 µM and a TGI [25] of 26.6 µM. It also gave a TGI [26] of 24.9 µM, a TGI [27] of 25.9 µM and a TGI [28] of 18.1 µM. It also gave a TGI [59] of 17.3 µM, a TGI [29] of 14.4 µM and a TGI [60] of 27.8 µM. It also gave a TGI [30] of 24.4 µM, a TGI [31] of 25.5 µM and a TGI [32] of 9.38 µM. The TGI [33] was 21.6 µM, the TGI [34] was 11.4 µM and the TGI [35] was 16.1 µM. For the same compound, the TGI [36] was 6.45 µM, the TGI [37] was 14.5 µM and the TGI [38] was 2.17 µM. For the same compound, the TGI [39] was 17 µM, the TGI [40] was 29.2 µM and the TGI [41] was 39.1 µM. It also gave a TGI [42] of 21.9 µM, a TGI [61] of 38.7 µM and a TGI [62] of 29.3 µM. It also gave a TGI [43] of 22.8 µM, a TGI [44] of 15.9 µM and a TGI [63] of 19.7 µM. For the same compound, the TGI [45] was 19.9 µM, the TGI [46] was 20.6 µM and the TGI [64] was 18.5 µM. It also gave a TGI [65] of 26.6 µM, a TGI [47] of 11.6 µM and a TGI [48] of 16.5 µM. It also gave a TGI [49] of 22.1 µM, a TGI [66] of 18.6 µM and a TGI [67] of 19.8 µM. The TGI [50] was 21.6 µM, the TGI [51] was 13.6 µM and the TGI [68] was 15.3 µM. It also gave a TGI [52] of 15.8 µM, a TGI [53] of 25.6 µM and a TGI [54] of 21 µM.

Source: PubChem BioAssay (NCI)
